In the NIST ThermoML archive (doi:10.1016/j.jct.2014.03.021):

Columns and labels:
[1] = refractive index (Na D-line) (dimensionless); details: 101.33 kPa, Liquid, Standard Abbe refractometry
[2] = 101.33 kPa, Liquid; for electrical conductivity: Alternating current cell with electrodes; for speed of sound: Sing-around technique in a fixed-path interferometer; for mass density: Vibrating tube method

C[C@H](O)C(=O)[O-].C[N+](C)(C)CCO
Details	electrical conductivity, [2] [S/m]	mass density, [2] [kg/m3]	refractive index, [1]	speed of sound, [2] [m/s]
293.15 K	0.0138	1143.46	1.48146	1935.6
298.15 K	0.0219	1140.3	1.48056	1911.8
303.15 K	0.0327	1137.16	1.47931	1892
308.15 K	0.0455	1134.04	1.47808	1874.8
313.15 K	0.0647	1130.94	1.47676	1859.1
318.15 K	0.0897	1127.86	1.47544	1844.8
323.15 K	0.109	1124.79	1.47418	1831.1

O [water]
Details	mass density, [2] [kg/m3]	refractive index, [1]	speed of sound, [2] [m/s]
293.15 K	998.738	1.33299	–
298.15 K	997.576	1.33251	–
303.15 K	996.181	1.33197	–
308.15 K	994.563	1.33135	–
313.15 K	992.744	1.33065	1528.8
318.15 K	990.737	1.3299	–
323.15 K	988.556	1.32911	1542.3
